Assay [1] in a line: ORAC-Total (ORAClipo + ORAChydro). The text has this: An ORAC method for lipophilic antioxidants was further developed and validated using fluorescein as the fluorescent probe (Prior et al. 2003 J. Agric. Food Chem. 51: 3273-3279). This method has the advantage that similar assay conditions and standards can be used for both hydrophilic and lipophilic antioxidant components, such that the two values can be added together to obtain a total antioxidant capacity. In the present work, the ORAC value is expressed as the sum of values of both the water-soluble and fat-soluble parts. Green tea catechins (Polyphenon 60) were used as the control with the highest ORAC value among edible plants. Vitamin C and vitamin E were used as controls for water- and fat-soluble molecules, respectively. […] The SOAC scores are not included in this figure; ORAC values used are the sum of lipophilic and hydrophilic results. For each assay category, scaling was made logarithmic so that the plot on the chart resembles the associated rating. […] The larger the spatial area, the higher the overall antioxidative capacity. […] Both hydrophilic and lipophilic oxygen radical absorbance capacity (ORAC) assays were carried out at Brunswick Laboratory (Wareham, Mass.) based on the modified ORACfl method reported by Ou et al. (2001 J. Agric. Food Chem. 49: 4619-4626, 2002 J. Agr. Food Chem. 50: 3122-3128). Trolox, a water-soluble vitamin E analog, was used as the calibration standard. The data are expressed as mmole of Trolox equivalents per gram (mmol TE/g). The acceptable precision of the ORAC assay is a 15% relative standard deviation. Caffeic acid was used as the calibration standard. Hydroxyl radical ORAC (HOR-AC) is expressed as mmole caffeic acid equivalent per gram (mmol CAE/g). Trolox was used as the calibration standard. The peroxyl nitrite ORAC (NORAC) result is expressed as mmol TE/g. Alpha-tocopherol (vitamin E) was used as the calibration standard, and the singlet oxygen absorbance capacity (SOAC) result is expressed as mmole a-tocopherol equivalent (mmol VtE) per gram (Aubry et al. 1989). The abbreviation for the 1,1-diphenyl-2-picrylhydrazyl radical is DPPH. Radical-scavenging activity was measured by the change in absorbance at 517 nm with the DPPH result expressed as mmol TE/g. Similarly, FRAP is an abbreviation for the ferric reducing antioxidative power method, which utilizes chemical conversion of the yellow Fe 3+-2,4,6-tripyridyl s-triazine (TPTZ) complex to the blue Fe 2+-TPTZ complex by electron donation under acidic conditions (Okada and Okada 1998 J. Agric. Food Chem. 46: 401-406). The FRAP result is expressed as mmol TE/g (Ou et al. 2002b). Superoxide dismutase (SOD) was used as a calibration standard; the SOD result is expressed as kilo unit SOD equivalent (kunitSODeq) per gram.

The next assay relates to P. acnes (ATCC 6919). Kind of assay: Antimicrobial susceptibility, broth dilution (MIC/MBC). It is filed as cell-based, Propionibacterium acnes. The method, then: (§1) The antibacterial effects of seven hops components against five different strains of bacteria involved in primary or secondary skin and soft tissue infections was evaluated, with broth dilution methods. […] Antimicrobial susceptibility testing was performed using a broth dilution method. Gentamicin or ampicillin was used as a control to verify the methodology. A stock solution (20 mg/ml) of the test substance (or vehicle control) was prepared in dimethyl sulfoxide. Serial dilution was done in microwell plates. Reinforced Clostridial Medium was used for P. acnes (ATCC 6919). Three hundreds […] of the test substance was added to the test tube containing P. acnes (10^5 CFU/ml) in 2.7 ml of cultures grown under anaerobic conditions. Mueller-Hinston Broth suitable for culturing S. epidermidis (ATCC 12228), K. rhizophila (formerly M. luteus) (ATCC 9341), and S. aureus (ATCC […]), and Brain Heart Infusion Broth suitable for culturing S. pyogenes (ATCC 14289) were used. A total of […] of the test substance was added to the test tube containing the other microorganisms (10^5CFU/ml) in 0.9 ml of cultures grown under controlled conditions. […] Samples from those tubes that scored positive was plated onto an agar plate and incubated under controlled conditions.
For orientation: Dilution methods test growth across graded concentrations, often in twofold steps.

Assay [2] has as its system K. rhizophila (formerly M. luteus) (ATCC 9341). Described as above. It counts as cell-based, Kocuria rhizophila. The method, then:
as §1

Values after ≈ are worked out from the molar mass of the structure shown. Read-outs that look alike come from different tables or passages of the source.

Regarding `COc1cc(O)c(CC=C(C)C)c(O)c1C(=O)/C=C/c1ccc(O)cc1` [Xanthohumol (7), 3′-[3,3-dimethylallyl]-2′,4′,4-trihydroxy-6′-methoxychalcone], the “quenching activity against peroxyl radical (ORAC-total), rank among hop components” value in assay [1] (FIG. 2 radar chart) is given as “highest quenching activity”. The “ORAC-Total (Trolox equivalent)” value in assay [1] (ORAClipo + ORAChydro) was 4.2 Trolox equivalent. Moreover, the minimum bactericidal concentration (MBC) is 3000 mg/L (≈ 8460 µM) in the assay on P. acnes (ATCC 6919) (Cutibacterium acnes, ATCC6919, read-out: MBC); “[3] g/mL” in the assay on P. acnes (ATCC 6919) (lowest concentration required to kill); “[10] g/mL” in assay [2]. Moreover, the minimum inhibitory concentration (MIC) with P. acnes (ATCC 6919) (minimal 100% inhibitory concentration, 2 days) was found to be 3 mg/L (≈ 8.46 µM); in assay [2] (1 day), 1 mg/L (≈ 2.82 µM); in assay [2] (Kocuria rhizophila, ATCC9341), 1000 mg/L (≈ 2820 µM).

Broadly, the MBC is the smallest concentration meeting the test's criterion for killing. For orientation: MIC means the lowest concentration that inhibits growth of the organism. Low values mean inhibition by little substance, high ones a need for much substance.
